ChEMBL document CHEMBL1201862, “PubChem BioAssay data set” (2004)
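These data come from cells grown in 96-well plates and exposed to compound for 48 hours at five concentrations. GI50 is the concentration that inhibits growth by half.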 Calls of active or inactive are those of the source. No stated cut-off is given here; in the data, active = GI50 up to about 1.1 µM and inactive = higher.

Tests used:
Assay in all cases: growth of human tumour cells (NCI), 48 h
[1] = test system: CCRF-CEM
[2] = test system: MOLT-4
[3] = test system: HOP-18
[4] = test system: UACC-257
[5] = test system: UACC-62
[6] = test system: A549
[7] = test system: RXF 393
[8] = test system: SNB-19
[9] = test system: K562
[10] = test system: XF498
[11] = test system: SNB-78
[12] = test system: NCI-H226
[13] = test system: M19-MEL
[14] = test system: RPMI-8226
[15] = test system: Malme-3M
[16] = test system: SNB-75
[17] = test system: SF-268
[18] = test system: OVCAR-4
[19] = test system: DU-145
[20] = test system: T47D

Compound	GI50 [1]	GI50 [2]	GI50 [3]	GI50 [4]	GI50 [5]	GI50 [6]	GI50 [7]	GI50 [8]	GI50 [9]	GI50 [10]	GI50 [11]	GI50 [12]	GI50 [13]	GI50 [14]	GI50 [15]	GI50 [16]	GI50 [17]	GI50 [18]	GI50 [19]	GI50 [20]
N#CC(C(=O)CCCC(=O)Nc1ccccc1[N+](=O)[O-])c1c(Cl)cccc1Cl (configuration not stated)	> 100 µM (inactive)	> 100 µM (inactive)	31 µM (inactive)	> 100 µM (inactive)	> 100 µM (inactive)	> 100 µM (inactive)	> 100 µM (inactive)	> 100 µM (inactive)	> 100 µM (inactive)	> 100 µM (inactive)	> 100 µM (inactive)	> 100 µM (inactive)	> 100 µM (inactive)	> 100 µM (inactive)	> 100 µM (inactive)	> 100 µM (inactive)	> 100 µM (inactive)	> 100 µM (inactive)	–	–
CC(CC(=O)Nc1ccc(NC(=O)CC(C)/N=N\C(N)=S)cc1)/N=N\C(N)=S (configuration not stated)	> 100 µM (inactive)	> 100 µM (inactive)	> 100 µM (inactive)	> 100 µM (inactive)	> 100 µM (inactive)	> 100 µM (inactive)	> 100 µM (inactive)	> 100 µM (inactive)	> 100 µM (inactive)	> 100 µM (inactive)	> 100 µM (inactive)	> 100 µM (inactive)	> 100 µM (inactive)	> 100 µM (inactive)	> 100 µM (inactive)	> 100 µM (inactive)	> 100 µM (inactive)	> 100 µM (inactive)	–	–
O=c1[nH]c(=O)n(C2OC(CO)C(O)C(O)C2O)cc1F (configuration not stated)	> 100 µM (inactive)	> 100 µM (inactive)	> 100 µM (inactive)	> 100 µM (inactive)	> 100 µM (inactive)	> 100 µM (inactive)	> 76.2 µM (inactive)	> 100 µM (inactive)	> 100 µM (inactive)	> 100 µM (inactive)	> 100 µM (inactive)	> 100 µM (inactive)	> 100 µM (inactive)	> 100 µM (inactive)	> 100 µM (inactive)	> 88.5 µM (inactive)	> 100 µM (inactive)	> 100 µM (inactive)	> 100 µM (inactive)	> 100 µM (inactive)
Cc1ccccc1C(=O)c1cc(O)ccc1O	> 100 µM (inactive)	> 100 µM (inactive)	> 100 µM (inactive)	> 100 µM (inactive)	65 µM (inactive)	> 100 µM (inactive)	> 100 µM (inactive)	> 100 µM (inactive)	35 µM (inactive)	> 100 µM (inactive)	> 100 µM (inactive)	> 100 µM (inactive)	> 100 µM (inactive)	> 100 µM (inactive)	> 100 µM (inactive)	76.2 µM (inactive)	> 100 µM (inactive)	> 100 µM (inactive)	–	–
CC1=Nc2c(O)nc(S)nc2NC(c2ccc(Cl)c(Cl)c2)C1 (configuration not stated)	> 100 µM (inactive)	> 100 µM (inactive)	> 89.1 µM (inactive)	21 µM (inactive)	29.8 µM (inactive)	21.1 µM (inactive)	17.5 µM (inactive)	> 45 µM (inactive)	> 100 µM (inactive)	> 65.8 µM (inactive)	60.4 µM (inactive)	22.6 µM (inactive)	18.5 µM (inactive)	> 100 µM (inactive)	> 89.7 µM (inactive)	80.9 µM (inactive)	32.2 µM (inactive)	25.5 µM (inactive)	–	–
OCC1CC2CC1C1(C2)OCCO1 (configuration not stated)	> 100 µM (inactive)	> 100 µM (inactive)	> 100 µM (inactive)	> 100 µM (inactive)	> 100 µM (inactive)	> 100 µM (inactive)	> 100 µM (inactive)	> 100 µM (inactive)	> 100 µM (inactive)	> 100 µM (inactive)	> 100 µM (inactive)	> 100 µM (inactive)	> 100 µM (inactive)	> 100 µM (inactive)	> 100 µM (inactive)	> 100 µM (inactive)	> 100 µM (inactive)	> 100 µM (inactive)	–	–
CC(C)c1ccc(/C=C/c2cc(C(=O)NNC(=O)NC3CCCCC3)nc(S)n2)cc1	–	–	> 100 µM (inactive)	> 100 µM (inactive)	> 100 µM (inactive)	> 100 µM (inactive)	> 100 µM (inactive)	> 100 µM (inactive)	–	> 100 µM (inactive)	> 100 µM (inactive)	> 100 µM (inactive)	> 100 µM (inactive)	> 100 µM (inactive)	> 100 µM (inactive)	> 100 µM (inactive)	> 100 µM (inactive)	> 100 µM (inactive)	–	–
COC1CC(O[C@H]2CC[C@@]3(C)C(=CCC4(O)C3CCC35C(=O)OC6(C)O[C@@]43CCC65)C2)OC(C)C1O (some centres not stated)	> 100 µM (inactive)	> 100 µM (inactive)	> 100 µM (inactive)	> 100 µM (inactive)	> 100 µM (inactive)	> 100 µM (inactive)	> 100 µM (inactive)	> 100 µM (inactive)	> 100 µM (inactive)	> 100 µM (inactive)	> 100 µM (inactive)	> 100 µM (inactive)	> 100 µM (inactive)	> 100 µM (inactive)	> 100 µM (inactive)	> 100 µM (inactive)	> 100 µM (inactive)	> 100 µM (inactive)	–	–
COc1ccc(CCc2cc(OC)c(OC)c(OC)c2)cc1	0.0204 µM (active)	0.0331 µM (active)	> 100 µM (inactive)	0.544 µM (active)	0.0165 µM (active)	0.0403 µM (active)	0.0205 µM (active)	0.111 µM (active)	0.012 µM (active)	< 0.01 µM (active)	0.0169 µM (active)	0.386 µM (active)	< 0.0226 µM (active)	0.0309 µM (active)	0.271 µM (active)	0.0395 µM (active)	0.423 µM (active)	5.05 µM (inactive)	0.0935 µM (active)	–
